In experiment [1] the test system is isolated rabbit aorta (contraction induced by angiotensin II). Kind of experiment: Inhibition of the contraction induced by agonists in isolated rabbit aorta rings (angiotensin II). The conditions noted are these: Oryctolagus cuniculus, based on the 3rd = submaximal agonist concentration, read-out: IC50 (50% inhibition of agonist-induced contraction). On the procedure: Investigation of the inhibition of the contraction induced by agonists
Rabbits of either sex are stunned by a blow to the back of the head and exsanguinated, or in some cases anaesthetized with Nembutal (about 60-80 mg/kg i.v.) and sacrificed by opening the thorax. The thoracic aorta is removed, freed from adhering connective tissue, divided into ring segments 1.5 mm wide and individually transferred under an initial loading of about 3.5 g to 10 ml organ baths containing Krebs-Henseleit nutrient solution, which is temperature-controlled at 37° C. and aerated with 95% 02 / 5% CO2, of the following composition: 119 mmol/l NaCl; 2.5 mmol/l CaCl2 ×2H2 O; 1.2 mmol/l KH2 PO4; 10 mmol/l glucose; 4.8 mmol/l KCl; 1.4 mmol/l MgSO4 ×7 H2 O and 25 mmol/l NaHCO3.
The contractions are detected isometrically by Statham UC2 cells by means of bridge amplifiers (ifd Mulheim or DSM Aalen) and digitalized and assessed by means of A/D converters (System 570, Keithley Munich). Agonist dose response curves (DRC) are carried out hourly. With each DRC, 3 or 4 individual concentrations are applied to the baths at a 4 min interval. After the end of the DRC and subsequent washing-out cycles (16 times in each case about 5 sec/min with the abovementioned nutrient solution), a 28-minute rest or incubation phase follows, during which the contractions as a rule reach the starting value again. […]

For the next experiment, the target named is T1, angiotensin II receptor (Bos taurus, UniProt P25104).
T1 construct: partially purified membrane fractions of bovine AGC; from tissue; host or cells: bovine adrenal gland cortex, partially purified membrane fractions
T1 sequence (P25104 1-359): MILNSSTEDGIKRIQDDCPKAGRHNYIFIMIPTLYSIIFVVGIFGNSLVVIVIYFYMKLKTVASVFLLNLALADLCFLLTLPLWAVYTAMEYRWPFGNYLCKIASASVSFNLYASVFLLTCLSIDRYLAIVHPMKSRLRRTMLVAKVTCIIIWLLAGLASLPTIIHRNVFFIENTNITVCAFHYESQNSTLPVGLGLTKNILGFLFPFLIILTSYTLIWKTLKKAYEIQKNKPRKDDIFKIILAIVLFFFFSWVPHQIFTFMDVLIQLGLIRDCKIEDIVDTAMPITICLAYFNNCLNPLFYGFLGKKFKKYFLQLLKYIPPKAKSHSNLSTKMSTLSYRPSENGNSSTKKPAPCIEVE
The experiment can be described thus: Interaction with the angiotensin II receptor in membrane fractions of the adrenal gland cortex (bovine), 3H-angiotensin II binding. The following applies: bovine adrenal gland cortex membranes; 3H-angiotensin II 3-5 nM; 60 min, room temperature; read-out: IC50 (50% inhibition of the specific binding of the radioligand). From the text:
Interaction of the compounds according to the invention with the angiotensin II receptor in membrane fractions of the adrenal gland cortex (bovine)
Bovine adrenal gland cortices (AGC), which have been freshly removed and carefully freed from medulla from capsule, are comminuted in sucrose solution (0.32M) with the aid of an Ultra-Turrax (Janke & Kunkel, Staufen i.B.) to give a coarse membrane homogenate and are partially purified in two centrifugation steps to give membrane fractions. The receptor binding investigations are carried out on partially purified membrane fractions of bovine AGC using radioactive angiotensin II in an assay volume of 0.25 ml, which specifically contains the partially purified membranes (50-80 μg), ^3 H-angiotensin II (3-5 nM), test buffer solution (50 mM Tris, pH 7.2), 5 mM MgCl2 and the substances to be investigated. After an incubation time of 60 min at room temperature, the unbound radioactivity of the samples is separated by means of moistened glass fibre filters (Whatman GF/C) and the bound radioactivity is measured […] in a scintillation cocktail after washing the protein with ice-cold buffer solution (50 mM Tris/HCl, pH 7.4, 5% PEG 6000). […]

The next experiment relates to smooth muscle cells. Kind of experiment: Inhibition of the proliferation of smooth muscle cells (3H-thymidine incorporation). The format is cell-based. The conditions noted are these: rat aorta smooth muscle cells; thymidine incorporation produced by 10% FCS; read-out: IC50 (half-maximum inhibition of thymidine incorporation). The protocol:
Investigation of the inhibition of the proliferation of smooth muscle cells by the compounds according to the invention
To determine the antiproliferation action of the compounds, smooth muscle cells are used which are obtained from aortas of rats by the media explant technique [R. Ross, J. Cell. Biol. 50, 172, 1971]. The cells are inoculated in suitable culture dishes, as a rule 96-hole plates, and cultured in 5% CO2 at 37° C. for 2-3 days in medium 199 containing 7.5% FCS and 7.5% NCS, 2 mM L-glutamine and 15 mM HEPES, pH 7.4. The cells are then synchronized by withdrawal of serum for 2-3 days and then stimulated into growth with serum or other factors. Test compounds are simultaneously added. After 16-20 hours, 1 μCi of ^3 H-thymidine is added and after a further 4 hours the incorporation of this substance into the TCA-precipitatable DNA of the cells is determined. To determine the IC50 values, the active compound concentration is calculated which, on sequential dilution of the active compound, causes half-maximum inhibition of the thymidine incorporation produced by 10% FCS.

With `Cc1ccc(S(=O)(=O)NC(=O)Cc2ccc(Cn3c(C4CC4)nc4c(C)cc(C)nc43)cc2)cc1` [Example 9], the IC50 in experiment [1] came to 61 nM; on angiotensin II receptor it was 16 nM. As for `Cc1ccnc2c1nc(-c1ccccc1)n2Cc1ccc(C(C(=O)NC(C(N)=O)c2ccccc2)C2CCCCCC2)cc1` (centres unmarked) [Example 23], the IC50 with smooth muscle cells amounted to 43 nM. The same measure, in the same setting: the figure for `O=C(N[C@H](CO)c1ccccc1)C(c1ccc(Cn2c(-c3ccccc3)nc3cccnc32)cc1)C1CCCCCC1` (some centres unmarked) [Example 14] is 120 nM. `Cc1cc(C)c2nc(C3CC3)n(Cc3ccc(C(C(=O)O)C(C)C)cc3)c2n1` (centres unmarked) [Example 2]: the IC50 on angiotensin II receptor turned out to be 210 nM.

(Values after patent US5527809A, “Substituted imidazo[4,5-b]pyridines and benzimidazoles” (Bayer Aktiengesellschaft, priority 1993, dated 1996).)
